Columns and labels:
[1] = system: BRD2, BRD3, and BRD4 proteins; assay: Western blotting of BET protein levels in RS4; format: cell-based, human; settings: RS4;11 cells, 3 h treatment, Western blot
acute leukemia model = acute leukemia model in mice ref 23; cited from earlier work

## Cc1sc2c(c1C)C(c1ccc(Cl)cc1)=N[C@@H](CC(=O)NCCCCNC(=O)COc1cccc3c1C(=O)N(C1CCC(=O)NC1=O)C3=O)c1nnc(C)n1-2 (some centres unmarked) [Compound 4, dBET1, reference compound]
[1]
  Effect on the level of BRD2, BRD3, and BRD4 proteins: effectively decrease
Acute leukemia model
  Inhibition of tumor growth in vivo compared with 1: more effective
